{
  "source": "patent US12673054B2",
  "about": "“Substituted nucleoside analogs as PRMT5 inhibitors” (Lupin Limited, priority 2019, dated 2026)",
  "key": {"[1]": {"biological_target": "PRMT5:MEP50 (Homo sapiens, UniProt O14744)", "sequence (O14744 whole entry, the tested form may be a part)": "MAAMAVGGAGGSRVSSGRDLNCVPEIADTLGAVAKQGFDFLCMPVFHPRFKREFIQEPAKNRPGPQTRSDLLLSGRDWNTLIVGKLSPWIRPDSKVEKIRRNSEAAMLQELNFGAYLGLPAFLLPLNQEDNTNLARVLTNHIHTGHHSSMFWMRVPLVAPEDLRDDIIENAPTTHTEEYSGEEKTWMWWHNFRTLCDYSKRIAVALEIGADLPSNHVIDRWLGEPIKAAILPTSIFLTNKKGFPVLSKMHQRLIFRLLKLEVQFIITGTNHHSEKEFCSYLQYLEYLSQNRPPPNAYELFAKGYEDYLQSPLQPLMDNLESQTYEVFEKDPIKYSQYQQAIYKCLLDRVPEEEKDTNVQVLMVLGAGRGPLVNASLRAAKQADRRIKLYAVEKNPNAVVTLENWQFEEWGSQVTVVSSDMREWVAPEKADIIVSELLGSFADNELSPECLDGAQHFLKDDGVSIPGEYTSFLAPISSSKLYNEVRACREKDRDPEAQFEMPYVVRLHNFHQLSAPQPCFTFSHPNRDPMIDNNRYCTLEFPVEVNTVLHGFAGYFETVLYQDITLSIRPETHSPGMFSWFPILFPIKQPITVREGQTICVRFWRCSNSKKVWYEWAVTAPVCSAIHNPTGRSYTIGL", "sequence (Q9BQA1 whole entry partner, the tested form may be a part)": "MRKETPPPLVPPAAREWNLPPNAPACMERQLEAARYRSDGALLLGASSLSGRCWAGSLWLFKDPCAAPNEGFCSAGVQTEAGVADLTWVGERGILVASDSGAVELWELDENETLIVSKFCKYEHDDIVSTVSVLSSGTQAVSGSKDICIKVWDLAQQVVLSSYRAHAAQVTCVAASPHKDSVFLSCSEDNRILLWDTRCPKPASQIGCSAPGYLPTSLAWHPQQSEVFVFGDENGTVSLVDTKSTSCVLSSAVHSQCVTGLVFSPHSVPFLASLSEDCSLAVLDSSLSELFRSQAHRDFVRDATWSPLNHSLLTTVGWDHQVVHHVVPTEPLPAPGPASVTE", "assay": "Biochemical assay, HTRF detection, inhibitory effect on PRMT5", "conditions": "biotinylated H4R3 substrate, 1 μM SAM; protocol 1 or 2 not given; read-out: IC50 (PRMT5 inhibition), activity range", "protocol": "(§1) Inhibitory effect of compounds on PRMT5 was assessed using HTRF detection technology in biochemical assay. Biotinylated H4R3 (residues 1-21) was used as a substrate. Compounds were pre-incubated with 15-25 ng PRMT5:MEP50 per well of a 384-well plate for 30 min at room temperature in the assay buffer containing 20 mM Bicine, pH 7.6, 25 mM NaCl, 2 mM DTT, 0.01% Chicken albumin and 0.01% Tween-20. Reaction was initiated by adding 1 μM of SAM and 50 nM biotinylated H4R3. Total assay volume was 15 μL. Reaction was continued for 120 min at room temperature. Then detection solution containing Streptavidin-Eu cryptate, anti-rabbit IgG-XL-665, Histone H4R3 Dimethyl Symmetric (H4R3me2s) Polyclonal Antibody, all prepared in HTRF detection buffer was added and further incubated for 30 min at room temperature. HTRF signal was recorded in PHERAStar microplate reader. Ratio of signal obtained at 665 nm and 620 nm was used to compute the percent inhibition of compound as follows % Inhibition=100−((Test Ratio−Negative control Ratio)/(Positive control Ratio−Negative control Ratio)*100) where Positive control=PRMT5+SAM+H4R3 Negative control=PRMT5+H4R3\nas §1, with “2.5” for “15-25”, “4 h” for “120 min”"}, "[2]": {"system": "MIA PaCa-2 xenograft", "assay": "Subchronic MIA PaCa-2 xenograft model, tumor growth inhibition", "format": "in vivo, Mus musculus", "conditions": "2 mg/kg dose, female athymic nude mice", "protocol": "Tumor size was measured with Digimatic Vernier caliper (Mitutoyo, Japan) when the tumors became palpable. Tumor volume (T. V.) is calculated by using the formula: Tumor volume (mm3)=(L×W2)/2\nWhere, L: Length of tumor, W: Width of tumor in millimeter Percent tumor growth inhibition (% TGI) is calculated using the formula: % TGI=[1−(Tf−Ti)/(Cf−Ci)]×100\nWhere, Tf and Ti, are the final and initial tumor volumes (test compound), and Cf and Ci are the final and initial mean tumor volumes (vehicle group), respectively.\nTumor fragment xenograft for pancreatic cancer cell line MIA PaCa-2 was established by implantation of tumor fragments 30-45 mm^3 subcutaneously into the right flank of female athymic nude FOXn1/J/Mus musculus mice with an age between 10-11 weeks purchased from the Jackson Laboratory, USA. All animal study proposals were reviewed and approved by the Institutional Animal Ethics Committee (IAEC) prior to initiation of experimentation."}, "[3]": {"system": "MIA PaCa-2 cells", "assay": "Anti-Cancer Assay (MIA PaCa-2)", "format": "cell-based", "conditions": "Homo sapiens, 240 h, 10 days, read-out: IC50 (inhibition of cell viability), activity range; for IC50: range given with mixed units (pM to nM)", "protocol": "(§2) Z-138 cells were seeded at a density of 2000-3000 cells per well in culture media (IMDM+10% FBS). PANC-1 (ATCC, CRL-1469™) and MIA PaCa-2 (ATCC, CRL-1420™) cells were seeded at a density of 200-300 cells per well in culture media (DMEM+10% FBS). Cells were seeded in opaque, flat bottomed tissue culture grade 96-well plates and Z-138 cells (suspension) were seeded and treated on the same day with various concentrations of test compounds. PANC-1 and MIA PaCa-2 cells, being adherent, were kept for overnight settlement at standard cell culture conditions (37° C., 5% CO2). On the following day, cells were treated with various concentrations of test compounds. Cells were treated with test compounds for a period of 96 h, 7 days and 10 days, for Z-138 cells, PANC-1 cells and MIA PaCa-2 cells, respectively. Cell viability was assessed using CellTiterGlo™ (Promega, USA) as per manufacturer's instructions. Relative Light Units (RLU) were read in Synergy™ 2 reader (Biotek, USA). The assay measures cellular ATP as an indicator of cell viability. RLU is proportional to the number of viable cells in the respective well.\n(§3) % inhibition of cell viability was calculated relative to the vehicle control samples containing media with 0.1% DMSO alone as per the formula below. (Avg. of Untreated Control−Avg. of Test)×100 • Avg. of Untreated control\n(§4) The IC50 values of individual compounds were calculated with Non Linear Regression Analysis using Graph Pad Prism (Graph Pad software, Inc, USA)."}, "[4]": {"system": "SDMA", "assay": "SDMA inhibition assay", "format": "cell-based", "conditions": "Homo sapiens, Z-138 cells, 48 h; for IC50: range given with mixed units (pM to nM); for pIC50: read-out: IC50 (SDMA inhibition), activity range", "protocol": "Z-138 cells (ATCC, CRL-3001™) were seeded at a density of 1 million cells/well in transparent, flat bottomed tissue culture grade 48-well plates. Cells were treated with various concentration of test compounds for a period of 48 h. Cell lysate was prepared using 1×CST Lysis buffer (Cell Signaling Technology, USA) and 500 ng/well/50 μL of lysate in pH 9.6 carbonate buffer was coated on 96-well Maxisorb plate and incubated overnight at 4° C. The plate was washed twice in 1×PBS containing 0.05% Tween 20 and blocked in 1% BSA for 1 h at ambient temperature. Further, the plate was incubated first with primary antibody (anti-SDMA antibody; CST #13222s) at ambient temperature for 2 h and then with HRP-conjugated secondary antibody at ambient temperature for 1 h with 2 intermittent washing steps in between.\nFor luminescence based detection, HRP substrates (substrate A+ substrate B in a 1:1 proportion) were added followed by luminescence reading after 30 min in Synergy™ 2 reader (Biotek, USA).\nFor absorbance based detection, TMB substrate was added followed by addition of STOP solution (2N H2SO4) post colour development and absorbance (excitation 450 nm and emission 540 nm) was measured in Synergy™ 2 reader (Biotek, USA).\n% inhibition of SDMA was calculated relative to the vehicle control samples containing media with 0.1% DMSO alone as per the formula below. (Avg. of Untreated Control−Avg. of Test)×100 • Avg. of Untreated control\nas §4"}, "[5]": {"system": "Z-138 cells", "assay": "Anticancer activity assay (cell viability, CellTiterGlo)", "format": "cell-based", "conditions": "Homo sapiens, cell line not given, read-out: IC50 (inhibition of cell viability), activity range", "protocol": "as §2, §3, §4"}},
  "note": "pIC50: −log10 of the molar value. Where two headings read alike, the source gives them in different places.",
  "data": [
    {"smiles": "Cc1nc(N)nc2c1ccn2[C@@H]1C=C(CCc2cc(F)c3cc(Cl)c(N)nc3c2)[C@@H](O)[C@H]1O", "note": "[Example 1, (1S,2R,5R)-3-(2-(2-Amino-3-chloro-5-fluoroquinolin-7-yl)ethyl)-5-(2-amino-4-methyl-7H-pyrrolo[2,3-d]pyrimidin-7-yl)cyclopent-3-ene-1,2-diol]", "values": [
      {"measurement": "pIC50", "setting": "[1]", "result": "9.12 to 9.40"},
      {"measurement": "% of tumor growth inhibition", "setting": "[2]", "result": 57, "unit": "%"},
      {"measurement": "pIC50", "setting": "[3]", "result": "9.40 to 12.00"},
      {"measurement": "IC50", "setting": "[4]", "result": "100 to 1000", "unit": "pM"}
    ]},
    {"smiles": "Cc1nc(N)nc2c1ccn2[C@@H]1C=C(COc2cc(F)c3cc(Cl)c(N)nc3c2)[C@@H](O)[C@H]1O", "note": "[Example 2, (1S,2R,5R)-3-(((2-Amino-3-chloro-5-fluoroquinolin-7-yl)oxy)methyl)-5-(2-amino-4-methyl-7H-pyrrolo[2,3-d]pyrimidin-7-yl)cyclopent-3-ene-1,2-diol]", "values": [
      {"measurement": "pIC50", "setting": "[1]", "result": "9.12 to 9.40"},
      {"measurement": "IC50", "setting": "[3]", "result": "401 to 30000", "unit": "pM"},
      {"measurement": "pIC50", "setting": "[4]", "result": "7.30 to 8.96"}
    ]},
    {"smiles": "Cc1nc(N)c2ccn([C@@H]3C=C(COc4cc(F)c5cc(Cl)c(N)nc5c4)[C@@H](O)[C@H]3O)c2n1", "note": "[Example 3, (1S,2R,5R)-5-(4-Amino-2-methyl-7H-pyrrolo[2,3-d]pyrimidin-7-yl)-3-(((2-amino-3-chloro-5-fluoroquinolin-7-yl)oxy)methyl)cyclopent-3-ene-1,2-diol]", "values": [
      {"measurement": "pIC50", "setting": "[1]", "result": "9.12 to 9.40"},
      {"measurement": "IC50", "setting": "[3]", "result": "401 to 30000", "unit": "pM"},
      {"measurement": "pIC50", "setting": "[4]", "result": "7.30 to 8.96"}
    ]},
    {"smiles": "Cc1nc(N)nc2c1cnn2[C@@H]1C=C(CCc2cc(F)c3cc(Cl)c(N)nc3c2)[C@@H](O)[C@H]1O", "note": "[Example 4, (1S,2R,5R)-3-(2-(2-Amino-3-chloro-5-fluoroquinolin-7-yl)ethyl)-5-(6-amino-4-methyl-1H-pyrazolo[3,4-d]pyrimidin-1-yl)cyclopent-3-ene-1,2-diol]", "values": [
      {"measurement": "pIC50", "setting": "[1]", "result": "9.12 to 9.40"},
      {"measurement": "IC50", "setting": "[3]", "result": "401 to 30000", "unit": "pM"},
      {"measurement": "IC50", "setting": "[4]", "result": "100 to 1000", "unit": "pM"}
    ]},
    {"smiles": "Cc1nc(N)c2ccn([C@@H]3C=C(COc4cc(C(F)F)cc5c4CNCC5)[C@@H](O)[C@H]3O)c2n1", "note": "[Example 5, (1S,2R,5R)-5-(4-Amino-2-methyl-7H-pyrrolo[2,3-d]pyrimidin-7-yl)-3-(((6-(difluoromethyl)-1,2,3,4-tetrahydroisoquinolin-8-yl)oxy)methyl)cyclopent-3-ene-1,2-diol]", "values": [
      {"measurement": "pIC50", "setting": "[5]", "result": "< 9.00"},
      {"measurement": "pIC50", "setting": "[1]", "result": "< 9.12"}
    ]},
    {"smiles": "Cc1nc(N)c2ccn([C@@H]3C=C(CCc4cc(C(F)F)cc5c4CNCC5)[C@@H](O)[C@H]3O)c2n1", "note": "[Example 6, (1S,2R,5R)-5-(4-Amino-2-methyl-7H-pyrrolo[2,3-d]pyrimidin-7-yl)-3-(2-(6-(difluoromethyl)-1,2,3,4-tetrahydroisoquinolin-8-yl)ethyl)cyclopent-3-ene-1,2-diol]", "values": [
      {"measurement": "pIC50", "setting": "[5]", "result": "< 9.00"},
      {"measurement": "pIC50", "setting": "[1]", "result": "< 9.12"}
    ]},
    {"smiles": "Cc1nc(N)c2ccn([C@@H]3C=C(CCc4cc(F)c5cc(Cl)c(N)nc5c4)[C@@H](O)[C@H]3O)c2n1", "note": "[Example 7, (1S,2R,5R)-5-(4-Amino-2-methyl-7H-pyrrolo[2,3-d]pyrimidin-7-yl)-3-(2-(2-amino-3-chloro-5-fluoroquinolin-7-yl)ethyl)cyclopent-3-ene-1,2-diol]", "values": [
      {"measurement": "pIC50", "setting": "[1]", "result": "9.12 to 9.40"},
      {"measurement": "pIC50", "setting": "[3]", "result": "9.40 to 12.00"},
      {"measurement": "IC50", "setting": "[4]", "result": "100 to 1000", "unit": "pM"}
    ]},
    {"smiles": "Cc1nc(N)nc2c1ccn2[C@@H]1C=C(CCc2cc(C(F)F)c(F)c3c2CNCC3)[C@@H](O)[C@H]1O", "note": "[Example 8, (1S,2R,5R)-5-(2-Amino-4-methyl-7H-pyrrolo[2,3-d]pyrimidin-7-yl)-3-(2-(6-(difluoromethyl)-5-fluoro-1,2,3,4-tetrahydroisoquinolin-8-yl)ethyl)cyclopent-3-ene-1,2-diol]", "values": [
      {"measurement": "pIC50", "setting": "[5]", "result": "< 9.00"},
      {"measurement": "pIC50", "setting": "[1]", "result": "9.12 to 9.40"},
      {"measurement": "pIC50", "setting": "[4]", "result": "7.30 to 8.96"}
    ]}
  ]
}
